Measured values published in ChEMBL document CHEMBL1201862, “PubChem BioAssay data set” (2004).
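Results reflect a 48-hour exposure of cells in 96-well plates to compound at five concentrations. GI50 marks 50% less growth.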 Calls of active or inactive are those of the source. Cut-off read from the data, not from the text of the source: active = GI50 up to about 1.1 µM and inactive = higher.

Experiments:
Assay in all cases: NCI tumour cell line growth inhibition, 48 h
A498 = tested on: A498
BT-549 = tested on: BT-549
COLO 205 = tested on: COLO 205
HCT-116 = tested on: HCT-116
HL-60 = tested on: HL-60
HOP-62 = tested on: HOP-62
Hs-578T = tested on: Hs-578T
K562 = tested on: K562
MCF7 = tested on: MCF7
MOLT-4 = tested on: MOLT-4
OVCAR-3 = tested on: OVCAR-3
RXF 393 = tested on: RXF 393
SF-295 = tested on: SF-295
SK-MEL-28 = tested on: SK-MEL-28
SK-OV-3 = tested on: SK-OV-3
SN12C = tested on: SN12C
T47D = tested on: T47D
U-251 = tested on: U-251
MDA-MB-435 = tested on: MDA-MB-435

Measured: GI50

Cc1c(C)c(C)c(CC2(C)CSC2)c(CC2(C)CSC2)c1C
inactive: A498 > 100 µM | BT-549 > 100 µM | COLO 205 > 100 µM | HCT-116 > 100 µM | HL-60 > 100 µM | HOP-62 > 100 µM | Hs-578T > 100 µM | K562 > 100 µM | MCF7 > 100 µM | MOLT-4 > 100 µM | OVCAR-3 > 100 µM | RXF 393 > 100 µM | SF-295 > 100 µM | SK-MEL-28 > 100 µM | SK-OV-3 > 100 µM | SN12C > 100 µM | T47D > 100 µM | U-251 > 100 µM

N=c1c2ccccc2nc2oc3ccccc3n12
inactive: A498 38.7 µM | BT-549 51.2 µM | COLO 205 > 100 µM | HCT-116 36.6 µM | HL-60 > 100 µM | HOP-62 23.2 µM | Hs-578T 20.6 µM | K562 > 100 µM | MCF7 45.1 µM | MDA-MB-435 > 100 µM | OVCAR-3 > 10 µM | SF-295 > 100 µM | SK-MEL-28 > 10 µM | SK-OV-3 40.6 µM | SN12C > 100 µM

CN(C)P(=O)(Oc1occc1C(O)Cc1ccccc1)N(C)C (centres undefined)
inactive: A498 > 100 µM | BT-549 > 100 µM | COLO 205 > 100 µM | HCT-116 > 100 µM | HOP-62 > 100 µM | MCF7 > 100 µM | MDA-MB-435 > 100 µM | OVCAR-3 > 100 µM | RXF 393 > 100 µM | SF-295 > 100 µM | SK-MEL-28 > 100 µM | SK-OV-3 > 100 µM | SN12C > 100 µM | T47D > 100 µM | U-251 > 100 µM

N=C(N)SCc1ccc(N=C=S)cc1
inactive: A498 13.9 µM | COLO 205 13.4 µM | HCT-116 14 µM | HL-60 5.62 µM | HOP-62 16.6 µM | Hs-578T 12.6 µM | K562 11.7 µM | MDA-MB-435 13.1 µM | MOLT-4 > 100 µM | RXF 393 3.56 µM | SF-295 17.1 µM | SK-MEL-28 14.6 µM | SK-OV-3 17.3 µM | SN12C 14.5 µM | T47D 13.6 µM | U-251 15.2 µM

CC(=O)Oc1ccc2c(c1)Oc1cc(C(C)=O)ccc1C21OC(=O)c2ccccc21 (centres undefined)
inactive: A498 > 100 µM | BT-549 > 100 µM | COLO 205 > 100 µM | HCT-116 > 100 µM | HL-60 44.6 µM | HOP-62 64.6 µM | K562 > 100 µM | MCF7 > 100 µM | MDA-MB-435 88.3 µM | MOLT-4 > 100 µM | OVCAR-3 60.3 µM | RXF 393 39.7 µM | SF-295 > 100 µM | SK-MEL-28 > 100 µM | SK-OV-3 94.8 µM | SN12C > 100 µM | T47D > 100 µM | U-251 > 100 µM

COc1ccc2c3c1O[C@H]1C(OC)C=CC4C(C2)N(Cc2cccs2)CCC341 (some centres undefined)
inactive: BT-549 40.1 µM | HCT-116 49.2 µM | HL-60 24 µM | HOP-62 > 100 µM | Hs-578T > 100 µM | K562 51.6 µM | MDA-MB-435 41.5 µM | MOLT-4 > 100 µM | OVCAR-3 45.4 µM | SF-295 61 µM | SK-OV-3 > 100 µM | SN12C > 100 µM

C=C1C(=O)O[C@H]2[C@H]([C@H](C)CCCC(C)=O)O[C@H]([C@@]3(C)CCC(=O)O3)C[C@@H]12
inactive: A498 > 100 µM | BT-549 31.8 µM | COLO 205 40.6 µM | HCT-116 22.3 µM | HL-60 41.7 µM | HOP-62 > 100 µM | Hs-578T 29.2 µM | K562 61.4 µM | MDA-MB-435 38.5 µM | MOLT-4 78.7 µM | OVCAR-3 56.1 µM | SF-295 > 100 µM | SK-MEL-28 > 100 µM | SK-OV-3 > 100 µM | SN12C 92 µM | T47D 76 µM | U-251 > 100 µM

O=[N+]([O-])c1ccc(-c2csc3nc(-c4ccccc4)nn23)cc1
inactive: A498 > 100 µM | BT-549 > 100 µM | COLO 205 > 100 µM | HCT-116 > 100 µM | HL-60 > 100 µM | HOP-62 43.9 µM | Hs-578T > 100 µM | K562 > 100 µM | MCF7 > 100 µM | MDA-MB-435 > 100 µM | MOLT-4 > 100 µM | OVCAR-3 > 100 µM | RXF 393 40.8 µM | SF-295 28.3 µM | SK-MEL-28 > 100 µM | SK-OV-3 61.9 µM | SN12C > 100 µM | U-251 39.8 µM
